# Reference: patent publication US10640534B2 (Agios Pharmaceuticals, Inc., priority 2012, dated 2020)
# pIC50: −log10 of the molar value.
# Tested on: U87MG cells
# Test: Cellular assay, inhibition of 2-HG production in U87MG cells
# Format: cell-based
# Settings: Homo sapiens, U-87 MG, 48 h
# Protocol: Cells (HT1080 or U87MG) are grown in T125 flasks in DMEM containing 10% FBS, 1× penicillin/streptomycin and 500 ug/mL G418 (present in U87MG cells only). They are harvested by trypsin and seeded into 96 well white bottom plates at a density of 5000 cell/well in 100 ul/well in DMEM with 10% FBS. […] Cells are incubated overnight at 37° C. in 5% CO2. The next day test compounds are made up at 2× the final concentration and 100 ul are added to each cell well. The final concentration of DMSO is 0.2% and the DMSO control wells are plated in row G. The plates are then placed in the incubator for 48 hours. […] The cell plate is placed back in the incubator for another 24 hours. At 72 hours post compound addition, 10 mL/plate of Promega Cell Titer Glo reagent is thawed and mixed. The cell plate is removed from the incubator and allowed to equilibrate to room temperature. Then 100 ul of Promega Cell Titer Glo reagent is added to each well of media. The cell plate is then placed on an orbital shaker for 10 minutes and then allowed to sit at room temperature for 20 minutes. The plate is then read for luminescence with an integration time of 500 ms.
row,pIC50,Compound
1,> 7.00,"N#Cc1ccnc(N2C(=O)CC[C@H]2C(=O)N(c2cc(F)cc(F)c2)[C@H](C(=O)NC2CC(F)(F)C2)c2ccccc2)c1 [Compound 210, (S)-1-(4-Cyanopyridin-2-yl)-N—((S)-2-(3,3-difluorocyclobutylamino)-2-oxo-1-phenylethyl)-N-(3,5-difluorophenyl)-5-oxopyrrolidine-2-carboxamide]"
2,> 7.00,"N#Cc1ccnc(N2C(=O)CC[C@H]2C(=O)N(c2cccc(F)c2)[C@H](C(=O)NC2CC(F)(F)C2)c2ccccc2)c1 [Compound 138, (S)-1-(4-Cyanopyridin-2-yl)-N—((S)-2-((3,3-difluorocyclobutyl)amino)-2-oxo-1-phenylethyl)-N-(3-fluorophenyl)-5-oxopyrrolidine-2-carboxamide]"
3,6.30 to 7.00,Cc1ccc(N2C(=O)CC[C@H]2C(=O)N(c2cccc(F)c2)[C@H](C(=O)NC2CC(F)(F)C2)c2ccccc2Cl)nc1 [Compound 21]
4,> 7.00,"N#Cc1ccnc(N2C(=O)CC[C@H]2C(=O)N(c2cccc(CCO)c2)[C@H](C(=O)NC2CC(F)(F)C2)c2ccccc2Cl)c1 [Compound 160, (S)—N—((S)-1-(2-Chlorophenyl)-2-((3,3-difluorocyclobutyl)amino)-2-oxoethyl)-1-(4-cyanopyridin-2-yl)-N-(3-(2-hydroxyethyl)phenyl)-5-oxopyrrolidine-2-carboxamide]"
5,> 7.00,"N#Cc1ccnc(N2C(=O)CC[C@H]2C(=O)N(c2cc(F)cc(F)c2)[C@H](C(=O)NC2CC(F)(F)C2)c2cc(Cl)ccc2Cl)c1 [Compound 201, (S)-1-(4-Cyanopyridin-2-yl)-N—((S)-1-(2,5-dichlorophenyl)-2-((3,3-difluorocyclobutyl)-amino)-2-oxoethyl)-N-(3,5-difluorophenyl)-5-oxopyrrolidine-2-carboxamide]"
6,> 7.00,"N#Cc1ccnc(N2C(=O)N(CCO)C[C@H]2C(=O)N(c2cccc(F)c2)C(C(=O)NC2CC(F)(F)C2)c2ccccc2Cl)c1 (stereo partly drawn) [Compound 112, (4S)—N-(1-(2-Chlorophenyl)-2-(3,3-difluorocyclobutyl-amino)-2-oxoethyl)-3-(4-cyanopyridin-2-yl)-N-(3-fluorophenyl)-1-(2-hydroxyeth-yl)-2-oxoimidazolidine-4-carboxamide]"
7,> 7.00,"N#Cc1ccnc(N2C(=O)CC[C@H]2C(=O)N(c2cc(F)cc(F)c2)[C@H](C(=O)NC2CC(F)(F)C2)c2ccccc2Cl)c1 [Compound 71, (S)—N—((S)-1-(2-Chlorophenyl)-2-((3,3-difluorocyclobutyl)amino)-2-oxoethyl)-1-(4-cyanopyridin-2-yl)-N-(3,5-difluorophenyl)-5-oxopyrrolidine-2-carboxamide]"
8,> 7.00,"N#Cc1ccnc(N2C(=O)CC[C@H]2C(=O)N(c2cccc(F)c2)[C@H](C(=O)NC2CC(F)(F)C2)c2ccccc2Cl)n1 [Compound 68, (S)—N—((S)-1-(2-Chlorophenyl)-2-((3,3-difluorocyclobutyl)amino)-2-oxoethyl)-1-(4-cyanopyrimidin-2-yl)-N-(3-fluorophenyl)-5-oxopyrrolidine-2-carboxamide]"
9,> 7.00,"N#Cc1cccc(N(C(=O)[C@@H]2CCC(=O)N2c2cc(C#N)ccn2)[C@H](C(=O)NC2CCC(F)(F)CC2)c2ccccc2Cl)c1 [Compound 166, (S)—N—((S)-1-(2-Chlorophenyl)-2-((4,4-difluorocyclohexyl)amino)-2-oxoethyl)-N-(3-cyanophenyl)-1-(4-cyanopyridin-2-yl)-5-oxopyrrolidine-2-carboxamide]"
10,> 7.00,"CS(=O)(=O)c1cccc(N(C(=O)[C@@H]2CCC(=O)N2c2cc(C#N)ccn2)C(C(=O)NC2CCC(F)(F)CC2)c2ccccc2Cl)c1 (stereo partly drawn) [Compound 95, (2S)—N-(1-(2-Chlorophenyl)-2-((4,4-difluorocyclohexyl)amino)-2-oxoethyl)-1-(4-cyanopyridin-2-yl)-N-(3-(methylsulfonyl)phenyl)-5-oxopyrrolidine-2-carboxamide]"
11,> 7.00,N#Cc1ccnc(N2C(=O)CC[C@H]2C(=O)N(c2cccc(F)c2)[C@H](C(=O)NC2CC(F)(F)C2)c2ccccc2Cl)c1 [Compound 37]
12,> 7.00,"N#Cc1ccnc(N2C(=O)CC[C@H]2C(=O)N(c2cc(F)cc(C3CC3)c2)[C@H](C(=O)NC2CC(F)(F)C2)c2ccccc2Cl)c1 [Compound 204, (S)—N—((S)-1-(2-Chlorophenyl)-2-((3,3-difluorocyclobutyl)amino)-2-oxoethyl)-1-(4-cyanopyridin-2-yl)-N-(3-cyclopropyl-5-fluorophenyl)-5-oxopyrrolidine-2-carboxamide]"

# More lines, now with the values behind:
row,Compound,pIC50
1,"N#Cc1ccnc(N2C(=O)CC[C@H]2C(=O)N(c2cccc(C3CC3)c2)[C@H](C(=O)NC2CC(F)(F)C2)c2ccccc2Cl)n1 [Compound 182, (S)—N—((S)-1-(2-Chlorophenyl)-2-((3,3-difluorocyclobutyl)amino)-2-oxoethyl)-1-(4-cyanopyrimidin-2-yl)-N-(3-cyclopropylphenyl)-5-oxopyrrolidine-2-carboxamide]",> 7.00
2,"N#Cc1ccnc(N2C(=O)CC[C@H]2C(=O)N(c2cccc(OC(F)F)c2)[C@H](C(=O)NC2CC(F)(F)C2)c2ccccc2Cl)n1 [Compound 194, (S)—N—((S)-1-(2-Chlorophenyl)-2-((3,3-difluorocyclobutyl)amino)-2-oxoethyl)-1-(4-cyanopyrimidin-2-yl)-N-(3-(difluoromethoxy)phenyl)-5-oxopyrrolidine-2-carboxamide]",> 7.00
3,"N#Cc1ccnc(N2C(=O)CC[C@H]2C(=O)N(c2cc(F)cc(F)c2)[C@H](C(=O)NC2CC(F)(F)C2)c2ccc(Cl)cc2Cl)c1 [Compound 196, (S)-1-(4-Cyanopyridin-2-yl)-N—((S)-1-(2,4-dichlorophenyl)-2-((3,3-difluorocyclobutyl)-amino)-2-oxoethyl)-N-(3,5-difluorophenyl)-5-oxopyrrolidine-2-carboxamide]",> 7.00
4,"N#Cc1ccnc(N2C(=O)[C@H](O)C[C@H]2C(=O)N(c2cccc(F)c2)[C@H](C(=O)NC2CCC(F)(F)CC2)c2ccccc2Cl)n1 [Compound 123, (2S,4R)—N—((S)-1-(2-Chlorophenyl)-2-((4,4-difluorocyclohexyl)amino)-2-oxoethyl)-1-(4-cyanopyrimidin-2-yl)-N-(3-fluorophenyl)-4-hydroxy-5-oxopyrrolidine-2-carboxamide]",> 7.00
5,O=C(NC1CCCCC1)[C@H](c1ccccc1Cl)N(C(=O)[C@@H]1CCC(=O)N1c1ncccn1)c1cccc(F)c1 [Compound 7],> 7.00
6,"N#Cc1ccnc(N2C(=O)[C@H](O)C[C@H]2C(=O)N(c2cc(F)cc(F)c2)[C@H](C(=O)NC2CCC(F)(F)CC2)c2ccccc2Cl)c1 [Compound 125, (2S,4R)—N—((S)-1-(2-Chlorophenyl)-2-(4,4-difluorocyclohexylamino)-2-oxoethyl)-1-(4-cyanopyridin-2-yl)-N-(3,5-difluorophenyl)-4-hydroxy-5-oxopyrrolidine-2-carboxamide]",> 7.00
7,"N#Cc1ccnc(N2C(=O)CC[C@H]2C(=O)N(c2cccc(OC(F)(F)F)c2)C(C(=O)NC2CC(F)(F)C2)c2ccccc2Cl)n1 (stereo partly drawn) [Compound 180, (2S)—N-(1-(2-Chlorophenyl)-2-((3,3-difluorocyclobutyl)amino)-2-oxoethyl)-1-(4-cyanopyrimidin-2-yl)-5-oxo-N-(3-(trifluoromethoxy)phenyl)pyrrolidine-2-carboxamide]",> 7.00
8,"N#Cc1ccnc(N2C(=O)[C@H](O)C[C@H]2C(=O)N(c2cc(F)cc(F)c2)[C@H](C(=O)NC2CC(F)(F)C2)c2ccccc2Cl)c1 [Compound 115, (2S,4R)—N—((S)-1-(2-Chlorophenyl)-2-((3,3-difluorocyclobutyl)amino)-2-oxoethyl)-1-(4-cyanopyridin-2-yl)-N-(3,5-difluorophenyl)-4-hydroxy-5-oxopyrrolidine-2-carboxamide]",> 7.00
9,"CS(=O)(=O)c1cc(F)cc(N(C(=O)[C@@H]2CCC(=O)N2c2nccc(C#N)n2)[C@H](C(=O)NC2CCC(F)(F)CC2)c2ccccc2Cl)c1 [Compound 168, (S)—N—((S)-1-(2-Chlorophenyl)-2-((4,4-difluorocyclohexyl)amino)-2-oxoethyl)-1-(4-cyanopyrimidin-2-yl)-N-(3-fluoro-5-(methylsulfonyl)phenyl)-5-oxopyrrolidine-2-carboxamide]",> 7.00
10,"N#Cc1ccnc(N2C(=O)[C@H](O)C[C@H]2C(=O)N(c2cc(F)cc(F)c2)[C@H](C(=O)NC2CCC(F)(F)CC2)c2ccccc2Cl)n1 [Compound 127, (2S,4R)—N—((S)-1-(2-Chlorophenyl)-2-(4,4-difluorocyclohexylamino)-2-oxoethyl)-1-(4-cyanopyrimidin-2-yl)-N-(3,5-difluorophenyl)-4-hydroxy-5-oxopyrrolidine-2-carboxamide]",> 7.00
11,"N#Cc1ccnc(N2C(=O)CNC[C@H]2C(=O)N(c2cc(F)cc(F)c2)[C@H](C(=O)NC2CC(F)(F)C2)c2ccccc2Cl)n1 [Compound 99, (S)—N—((S)-1-(2-chlorophenyl)-2-((3,3-difluorocyclobutyl)amino)-2-oxoethyl)-1-(4-cyanopyrimidin-2-yl)-N-(3,5-difluorophenyl)-6-oxopiperazine-2-carboxamide]",> 7.00
12,"N#Cc1ccnc(N2C(=O)CN(CCO)C[C@H]2C(=O)N(c2cc(F)cc(F)c2)[C@H](C(=O)NC2CC(F)(F)C2)c2ccccc2Cl)c1 [Compound 107, (S)—N—((S)-1-(2-chlorophenyl)-2-((3,3-difluorocyclobutyl)amino)-2-oxoethyl)-1-(4-cyanopyridin-2-yl)-N-(3,5-difluorophenyl)-4-(2-hydroxyethyl)-6-oxopiperazine-2-carboxamide]",> 7.00
